Assays:
common organisms = conditions: high concentrations of urea, such as 40%; cited from earlier work
horny layer of the skin = conditions: normal horny layer or ichthyotic/psoriatic scales soaked in 30% urea solution; cited from earlier work
dermal inflammation = experiment: topical urea applied to inflamed skin; type: in vivo

For NC(N)=O [urea], the antibacterial effect (common organisms) is given as “mild, antibacterial effect”, the “water uptake of horny layer” value (horny layer of the skin) is given as “take up much more water” and the dermal inflammation (dermal inflammation; formulated in a pharmaceutically acceptable base) is given as “improvement”. The “effectiveness against inflammation due to microbial infection” value (dermal inflammation; inflammation due to microbial infection) was “particularly effective”.
